“Also recorded” adds a separate entry of the source.

The subject of test [1] is primary patient-derived PDX1356 organoids. The experiment in a line: PDX1356 organoid assay. Format: cell-based, human. As for the experimental part:
PDX1535 organoids were derived from a patient of pancreatic cancer. Primary patient organoids were established by digesting patient-derived xenografts for 1 hour at 37° C. in RPMI containing 2.5% FBS, 5 mg/ml Collagenase II, and 1.25 mg/ml Dispase II, followed by passage through a […] mesh filter. Cells were plated at a density of 1.5×10^5 cells per 50 μl Matrigel. After domes were solidified, growth medium was added as follows: RPMI containing 50% Wnt3a conditioned media, 10% RSpondin1-conditioned media, 2.5% FBS, 50 ng/ml EGF, 5 mg/ml Insulin, 12.5 ng/ml hydrocortisone, and 14 μM Rho Kinase Inhibitor. After establishment, organoids were passaged and maintained. Briefly, organoids were isolated using Cell Recovery Solution (Corning 354253), then dissociated into single cell suspension with TrypLE Express (ThermoFisher 12604) supplemented with 25 μg/ml DNase I (Roche) and 14 μM Rho Kinase Inhibitor (Y-27632, Sigma). Cells were split 1:2 into 20 μl domes plated on pre-warmed 48-well plates. Domes were incubated at 37° C. for 5 min, then covered with human complete organoid feeding media without Wnt3a-conditioned media.
As shown in FIGS. 65-66, the anti-cancer effect of JTE-151 was also tested using the organoid assay on primary patient-derived PDX1356 pancreatic cancer cells. […] The volume of organoids was expressed as relative to control.

In test [2] the test system is KP^f/fC organoids. Briefly: KP^f/fC organoid culture assay. Format: cell-based, mouse. As for the experimental part: Organoids from REM2-KP^f/fC were passaged at ˜1:2 as previously described (Boj et al., 2015). Briefly, organoids were isolated using Cell Recovery Solution (Corning 354253), then dissociated using Accumax Cell Dissociation Solution (Innovative Cell Technologies AM105), and plated in 20 μl matrigel (BD Biosciences, 354230) domes on a pre-warmed 48-well plate. After incubation at 37° C. for 5 min, domes were covered with 300 μl PancreaCult Organoid Growth Media (Stemcell Technologies). […] Organoids were grown in the presence of vehicle or SR2211 for 4 days, then imaged and quantified, n=3 independent wells plated per dose per treatment group.
KP^f/fC organoid were derived from the REM2-KP^f/fC mice, a germline genetically engineered mouse model for pancreatic ductal adenocarcinoma with the genotype of Msi2^eGFP/Kras^LSL-G12D/+; Pdx^CRE/+; p53^f/f. Briefly, tumors from 10-12-week-old end-stage REM2-KP^f/fC mice were harvested and dissociated into a single cell suspension. Tumor cells were stained with FC block then 0.2 μg/10^6 cells anti-EpCAM APC (eBioscience). REM2+/EpCAM+ (stem) and REM2−/EpCAM+ (non-stem) cells were sorted, resuspended in 20 μl Matrigel (BD Biosciences, 354230), and plated as a dome in a pre-warmed 48-well plate. After incubation at 37° C. for 5 min, domes were covered with 300 μl PancreaCult Organoid Growth Media (Stemcell Technologies). Organoids were imaged and quantified 6 days later. All images were acquired on a Zeiss Axiovert 40 CFL. Organoids were counted and measured using ImageJ 1.51s software.
The derived KP^f/fC organoid were maintained and passaged at ˜1:2. Briefly, organoids were isolated using Cell Recovery Solution (Corning 354253), then dissociated using Accumax Cell Dissociation Solution (Innovative Cell Technologies AM105), and plated in 20 μl Matrigel (BD Biosciences, 354230) domes on a pre-warmed 48-well plate. After incubation at 37° C. for 5 min, domes were covered with 300 μl PancreaCult Organoid Growth Media (Stemcell Technologies).
About 4,000 organoids from each of the non-germline and germline mouse models were plated as single cells in multi-well plates, as described above, and treated with JTE-151 for 4 days (FIG. 48). Organoid number and size were analyzed after treatment. […] In the quantification, different doses of JTE-151 were plotted along the horizontal axis, and the volume of organoids was expressed as relative to control along the vertical axis. […] Organoid volume was then analyzed. Different doses of JTE-151 were plotted along the horizontal axis, and the vertical axis represents relative organoid volume to control.

Test [3] relates to primary patient-derived PDX1424 cancer cells. The experiment in a line: PDX1424 xenografts in mice. Format: in vivo, human. An excerpt:
FIG. 45 is a compilation of all data from mice bearing PDX or FG cancer xenographs, including PDX1424, PDX1444, and FG.
Finally, the impact of JTE-151 was examined in vivo on mice bearing primary patient-derived pancreatic cancer xenografts (FIGS. 70-78). […] FIGS. 70-72 show 3 rounds of treatment in an experiment using mice bearing PDX1356 xenographs. The horizontal axis of the first panel in each of FIGS. 70-72 represents days of treatment, and the vertical axis represents tumor volume. The horizontal axis of each of the remaining panels represents the target (vehicle vs. JTE-151 mouse), and the vertical axis represents the specified measurement. JTE-151 was given at the regimen as specified in the figures. For example, in the first round (FIG. 70), JTE-151 was given at 90 mg/kg body weight once per day for the first 25 days, then twice per day from day 26 though day 40.
Two other primary patient-derived xenografts, PDX1535 (FIGS. 74 and 75) and PDX1424 (FIGS. 76 and 77), were tested using JTE-151 at 90 mg/kg once per day. […] Considering the reduced tumor mass and cell numbers, the absence of a significant change in tumor volume may be due to necrotic cells that remained for a while post drug treatment.
A general note: In xenograft studies the graft and the host belong to different species.

For the compound `CC(=O)N1Cc2cc(S(C)(=O)=O)ccc2[C@@H]1C(=O)Nc1ccc(C(O)(C(F)(F)F)C(F)(F)F)cc1` [AZD-0284], the organoid volume result is “significant reduction; also recorded: effectively inhibited” in test [1] (3 μM AZD-0284 + 0.05 nM gemcitabine); “significant reduction; also recorded: effectively inhibited” in test [1] (3 μM AZD-0284 alone); “significant reduction; also recorded: effectively inhibited” in test [1] (6 μM AZD-0284 + 0.05 nM gemcitabine); “significant reduction; also recorded: effectively inhibited” in test [1] (6 μM AZD-0284 alone); “visibly reduced; also recorded: inhibited” in test [2] (6 μM AZD-0284 alone); “visibly reduced; also recorded: inhibited” in test [2] (6 μM AZD-0284 and 0.025 nM gemcitabine combination). Also, the figures for the “decrease in organoid volume compared to control” value in test [2] (3 μM AZD-0284 + 0.025 nM gemcitabine), in test [2] (6 μM AZD-0284 + 0.025 nM gemcitabine) and in test [2] (12 μM AZD-0284 + 0.025 nM gemcitabine) were 3.72 fold, 5.81 fold and 10.53 fold, respectively. Besides, the “organoid growth in volume” value in test [2] (3 μM AZD-0284 in combination with 0.02 nM gemcitabine) is “visibly decreased; also recorded: inhibited”. Further, the organoid growth entry in test [2] (AZD-0284 alone, 6 μM or 12 μM (FIG. 32)) is given as “significant inhibitory effect”. Further, in test [3] (60 mg/kg AZD-0284 for 3 weeks), the “EpCam+ tumor epithelial cells” value is on record as “significant reduction”. Besides, the “EpCam+/CD133+ tumor stem cells” value in test [3] (60 mg/kg AZD-0284 for 3 weeks) is recorded as “significant reduction”.
In the case of `Cc1ccc(NC(=O)C[C@H](CCC(=O)O)c2noc([C@H]3C[C@@H](CC(C)(C)C)C3)c2C2CC2)c(Cl)c1` [JTE-151, (4S)-6-[(2-chloro-4-methylphenyl)amino]-4-{4-cyclopropyl-5-[cis-3-(2,2-dimethylpropyl)cyclobutyl]isoxazol-3-yl}-6-oxohexanoic acid], in test [1] (0.3 μM JTE-151 + 0.05 nM gemcitabine), the “organoid growth in volume” value is “visibly decreased; also recorded: inhibited”. In addition, the “organoid growth in volume” value in test [1] (0.3 μM JTE-151 alone) is on record as “visibly decreased; also recorded: inhibited”. Moreover, the organoid volume entry in test [1] (3 μM JTE-151 + 0.05 nM gemcitabine) was “visibly reduced; also recorded: inhibited”. For the same compound, the organoid volume entry in test [1] (3 μM JTE-151 alone) is reported as “visibly reduced; also recorded: inhibited”. In addition, the organoid volume result in test [2] (JTE-151 at 0.003 μM and 0.03 μM) is “reduced organoid volume, although not at a statistically significant level”. Also, the organoid growth entry in test [2] (JTE-151 at 0.3 μM, 3 μM, 6 μM, and 9 μM) is on record as “significantly inhibited”. Moreover, in test [3] (JTE-151 90 mg/kg once per day), the “EpCam+ tumor epithelial cells” value is given as “trend of decreased”, the “EpCam+/CD133+ tumor stem cells” value is recorded as “trend of decreased”, the total cell counts result was “trend of decreased” and the tumor mass entry is “trend of decreased”. The tumor growth rate result in test [3] (JTE-151 90 mg/kg once per day (FIG. 77)) is listed as “slower”.
In the case of `OC(c1ccc(-c2ccc(CN3CCN(Cc4ccncc4)CC3)cc2)c(F)c1)(C(F)(F)F)C(F)(F)F` [SR2211], the organoid formation entry in test [2] (SR2211 vs vehicle) is reported as “decreased”.

Values taken from patent US20220202811A1, “TREATMENT FOR RETINOIC ACID RECEPTOR-RELATED ORPHAN RECEPTOR Ɣ (RORƔ)-DEPENDENT CANCERS” (The Regents of the University of California, priority 2019, published 2022).
